Assay: in vitro
Conditions: human, hela cells, % viability

Row | SMILES | viability at 28.5 h, 10 µM [%] | viability at 28.5 h, 10 µM (bulk resorufin, single well) [%]
1 | CC(=O)N1CCc2c(sc(NC(=O)c3ccccc3C)c2C#N)C1 [CBK304681] | 78.7 | –
2 | O=C(c1nccs1)C1CCN(C(=O)c2ccccc2F)CC1 [CBK284174] | 93.3 | –
3 | O=C(CSc1nnc(-c2cccnc2)n1-c1ccccc1)Nc1ccc(Br)cc1 [CBK265203] | 100 | –
4 | COc1cc(Nc2cc(C)nc3ncnn23)ccc1N1CCCC1=O [CBK297725] | 102 | –
5 | CC(=O)N1CCc2sccc2C1c1ccccc1NC(=O)C1CC1 (centres unmarked) [CBK282903] | 95 | –
6 | CC(C)C(=O)Nc1cc2ccccc2c(-c2cc(F)cc(F)c2)n1 [CBK085775] | 95.4 | –
7 | OCCN(CCO)Cc1ccc(Cl)c(Cl)c1 [CBK261919] | 88.1 | –
8 | CCCC/C=C/c1ccc(Nc2ccc(N3CCOCC3)cc2)nc1 [CBK036886] | 88.7 | –
9 | C=CCn1c(Cc2csc(NC(=O)c3ccc([N+](=O)[O-])cc3)n2)n[nH]c1=S [CBK295290] | 96.2 | –
10 | CN1CCc2c1nc1ccccc1c2NC(=O)CN1CCCCCC1 [CBK278298G] | 90.6 | –
11 | O=C1NC(=O)C(=Cc2cc(Br)ccc2OCc2cccc(F)c2)C(=O)N1 [CBK264160] | – | 104
12 | COC(=O)c1ccc(S(=O)(=O)N2CCc3ccccc3C2)cc1 [CBK068696] | 109 | –
13 | Cc1nc(C2(O)CCCN(C3CCCC3)CC2)sc1COc1ccc(Cl)cc1 (centres unmarked) [CBK285940] | 122 | –
14 | O=S(=O)(c1ccccc1)c1nc(-c2ccco2)oc1NCc1cccnc1 [CBK287610] | 69.5 | –
15 | CN1CCC(Cc2nc(-c3ccc(Cl)s3)n(CCO)n2)CC1 [CBK307025] | 100 | –
16 | Cc1ccc(-c2csc3ncnc(SCc4nc5ccccc5[nH]4)c23)cc1 [CBK267590] | 83.5 | –
17 | Cc1cc(Cl)c(S(=O)(=O)Nc2ccc3c(c2)OCCO3)cc1OCC(=O)NC1CCCCC1 [CBK266786] | 95.5 | –
18 | c1ccc(-c2nccnc2NCc2ccco2)cc1 [CBK088642] | 94.3 | –
19 | O=C(CSc1ccc2nnc(-c3ccccn3)n2n1)N1CCCCC1 [CBK287621] | 101 | –
20 | NS(=O)(=O)c1ccc(NC(=S)NNC(=O)c2ccc(Br)o2)cc1 [CBK266972] | 95.8 | –
21 | O=C(NCc1cccnc1)c1ccc(N2CCN(C(=O)c3ccccc3C(F)(F)F)CC2)nn1 [CBK153215] | 72.3 | –
22 | COc1ccc(S(=O)(=O)Nc2ccc(C(=O)O)c(O)c2)cc1[N+](=O)[O-] [CBK299771] | 95.7 | –
23 | Cc1ccc(C(Cc2ccsc2)NS(=O)(=O)c2ccc3[nH]c(=O)[nH]c(=O)c3c2)nc1 (centres unmarked) [CBK286354] | 88.6 | –

Row | SMILES | viability at 28.5 h, 10 µM [%] | viability at 28.5 h, 10 µM (bulk resorufin, single well) [%]
24 | NC(=S)Nc1nc(-c2ccc(Br)cc2)cs1 [CBK023259] | 100 | –
25 | COc1ccc([N+](=O)[O-])cc1COc1ccc2ccc(=O)oc2c1 [CBK264597] | 106 | –
26 | Cc1cc(C)nc(SCc2csc(N)n2)n1 [CBK019838] | 106 | –
27 | Cc1c(CN(Cc2ccc(F)cc2)CC2CCCO2)cnn1C (centres unmarked) [CBK282589] | 86 | –
28 | CC(=O)N1CCN(c2ccccc2NC(=O)c2ccc(OCc3ccccc3)cc2)CC1 [CBK269775] | 103 | –
29 | c1cc(COc2cncc(N3CCCC3)n2)cs1 [CBK115669] | 102 | –
30 | Cc1ccc2c(c1)C1(CC(=O)N(CC(=O)O)C1=O)C(=O)N2C (centres unmarked) [CBK076104] | 96.8 | –
31 | Cc1cc(=O)n(CC(=O)NC(Cc2ccncc2)[C@H]2C[C@H](O)C2)nc1C (some centres unmarked) [CBK306641] | 101 | –
32 | CCOC(=O)Nc1ccc2ccccc2n1 [CBK028207] | 87.3 | –
33 | CC(C)c1ccc(S(=O)(=O)NCC(C)(C)CO)cc1 [CBK043547] | 110 | –
34 | Cc1noc(C)c1S(N)(=O)=O [CBK022939] | 84.6 | –
35 | Cc1cccc(CN2CC[C@H]3[C@@H](C2)[C@H](c2ccsc2)CN3C(=O)c2ccc(F)cc2)c1 [CBK285639] | 94.9 | –
36 | COC(=O)c1ccc(/C=C/C2=CCN(C)CC2)cc1 [CBK283744] | 94.5 | –
37 | CC(NC(=O)N(Cc1ccc(CN)cc1)Cc1ccc2ccccc2c1)c1cccc2ccccc12 (centres unmarked) [CBK046092C] | 90 | –
38 | Brc1ccc(CSc2nc[nH]n2)cc1 [CBK026361] | 85.3 | –
39 | Oc1cccnc1N1CCN(Cc2ccccc2)CC1 [CBK045849] | 104 | –
40 | Cc1c(C(=O)N(C)Cc2nc(C(F)(F)F)cs2)nnn1C1CCNCC1 [CBK304315C] | 106 | –
41 | O=C(CN1C(=O)S/C(=C\c2ccc(OCc3ccccc3)cc2)C1=O)c1ccccc1 [CBK264636] | 95.1 | –
42 | O=C(NC1CCCC1)c1ccc(-c2cnc3[nH]c(=O)n(CCCN4CCOCC4)c3n2)cc1 [CBK064829] | 102 | –
43 | Cc1ccc(CCSCC(=O)O)cn1 [CBK261072] | 95.3 | –
44 | CCc1ccc(-c2ccc(-c3cc(C(=O)O)c4cc(Br)ccc4n3)o2)cc1 [CBK300543] | 90.6 | –
45 | c1csc(-c2cn3ccnc3c(NC3CC3)n2)c1 [CBK066712] | 108 | –
46 | Cn1ccnc1CN(CCCn1ccnc1)Cc1ccccc1F [CBK283022] | 102 | –

Row | SMILES | viability at 28.5 h, 10 µM [%] | viability at 28.5 h, 10 µM (bulk resorufin, single well) [%]
47 | Cc1ccc(S(=O)(=O)NC[C@H]2O[C@@H](CC(=O)N3CCc4ccccc43)[C@H](O)[C@@H]2O)cc1 [CBK288917] | 91.3 | –
48 | CC(C)(C)c1cc(C(=O)NCCN)n(Cc2ccc(Cl)cc2Cl)n1 [CBK116631T] | 95.1 | –
49 | CS(=O)(=O)N(Cc1cc2ccccc2nc1O)CC1CCCO1 (centres unmarked) [CBK269517] | 86.1 | –
50 | CCN(CC)C(=O)Cn1nc(C)n2c(cc3sccc32)c1=O [CBK284044] | 88.7 | –
51 | CN1CCC(N2C[C@H](O)C[C@H]2c2nc(-c3ccc4c(c3)OCO4)no2)CC1 [CBK288931] | 93.6 | –
52 | COc1ccc(Cc2n[nH]c(=S)n2-c2cccnc2)cc1 [CBK288373] | 85.5 | –
53 | O=S(=O)(c1ccc(Cl)cc1)N1CCN(c2cc(-c3ccco3)ncn2)CC1 [CBK091161] | 111 | –
54 | COc1cc(NC(=O)Nc2ccc3c(c2)COC2(CCNCC2)O3)cc(OC)c1OC [CBK091530T] | – | 94.9
55 | COCCNC(=O)c1cnc2ccc(OC)cc2c1O [CBK159999] | 95.9 | –
56 | COc1cccc(-c2cnc(N(C)C)nc2C2CCCN2Cc2ccc3ncccc3c2)c1 (centres unmarked) [CBK286251] | 85.5 | –
57 | COc1ccc(-c2cc(C(=O)Nc3ccc(S(N)(=O)=O)cc3)c3ccccc3n2)cc1OC [CBK263635] | 93.1 | –
58 | CN(c1cccc(C#N)c1)C1CCN(c2ncnc3c2cnn3C)C1 (centres unmarked) [CBK304720] | 87.4 | –
59 | CCCC/C=C/c1cnc2[nH]c(=O)n(Cc3ccc(S(N)(=O)=O)cc3)c2n1 [CBK064956] | 98.8 | –
60 | CCN1CCC(NC(=O)CSc2nc3ccccc3n2CC(C)C)CC1 [CBK304995] | 106 | –
61 | Cc1cc(C)cc(CNC(=O)NCCc2cccs2)c1 [CBK043459] | 103 | –
62 | Cc1cc2cc3n(c2nn1)N=C(Cl)CC3 [CBK019458] | 91.4 | –
63 | COC(=O)c1cn([C@H]2CO[C@H]3[C@@H]2OC[C@@H]3NC(=O)C2CCCCC2)nn1 [CBK289496] | 98.4 | –
64 | CCOc1ccsc1C(=O)N1CCC(Cc2ccccc2)CC1 [CBK200186] | 114 | –
65 | O=C(C(OCC(F)(F)F)c1ccccc1)N1CCN(c2nccs2)CC1 (centres unmarked) [CBK298299] | 91.9 | –
66 | CCOC(=O)c1[nH]c2ccccc2c1NS(=O)(=O)c1ccc(C)c([N+](=O)[O-])c1 [CBK047427] | 97.6 | –
67 | COc1ccc(C(=O)N2CCN(c3ncnc4onc(C)c34)CC2)cc1 [CBK304372] | 93.5 | –
68 | COc1cc(OC)cc(C(=O)N(CCC#N)Cc2ccco2)c1 [CBK305133] | 96.3 | –
69 | COc1cccc(CC(=O)N2CCC(Cc3ccc(-c4ccccc4)cc3)(C(N)=O)CC2)c1 [CBK285776] | 94.2 | –

Row | SMILES | viability at 28.5 h, 10 µM [%] | viability at 28.5 h, 10 µM (bulk resorufin, single well) [%]
70 | Cc1cc(C)n(CCNCc2cc(-c3ccc(F)cc3)c[nH]c2=O)n1 [CBK284694] | 89.2 | –
71 | Cc1cc(CN(C)Cc2ccc(-n3ccnc3C)cc2)n[nH]1 [CBK281989] | 97.6 | –
72 | OCC(O)/C=N/Nc1nc(N2CCCCC2)nc(N2CCCCC2)n1 (centres unmarked) [CBK019423] | 107 | –
73 | COc1ccc(-c2cc(C(=O)NCc3cccnc3)c3cc(Br)ccc3n2)cc1 [CBK293958] | 86.1 | –
74 | Cn1ncc2c(NCCCN3CCCC(CO)C3)nc(C(C)(C)C)nc21 (centres unmarked) [CBK307082] | 93 | –
75 | Cc1cc(-c2nnc(NCc3ccnn3C)o2)c(C)o1 [CBK306446] | 84.6 | –
76 | CSCCN1CCCN(c2nccc(OCC3COc4ccccc4O3)n2)CC1 (centres unmarked) [CBK083978] | 91.1 | –
77 | CCOC(=O)c1sc(Nc2nc(C)cc(OC)n2)nc1C [CBK264822] | 108 | –
78 | OCCNc1nc(-c2ccccc2)cn2ccnc12 [CBK066379] | 97.6 | –
79 | O=C(c1cc(Br)cc2c1OCC2)N1CCCCC1 [CBK007109] | 91.8 | –
80 | CN1CCC(N(C)C(=O)NCCc2c[nH]c3ccccc23)C1 (centres unmarked) [CBK156012] | 85.4 | –
81 | CC(C)C(NC(=O)CSc1n[nH]c(=O)n1Cc1ccccc1)c1ccc2c(c1)OCCCO2 (centres unmarked) [CBK297875] | 106 | –
82 | Cc1noc(C)c1NC(=O)c1cc2ccccc2[nH]1 [CBK200303] | 95.6 | –
83 | Cc1c(NC(=O)c2cn3c4c(c(N5CCN(C)CC5)c(F)cc4c2=O)OCN3C)c(=O)n(-c2ccccc2)n1C [CBK263061] | 92.9 | –
84 | COc1ccc(-c2nc3ccccn3c2CN2CCC(C(=O)O)CC2)cc1OC [CBK287063] | 89.9 | –
85 | CC(=O)NCCSc1nccnc1NC(C)C [CBK105289] | 92.8 | –
86 | Cc1nc(C(=O)N2CCn3nc(C(O)Cc4ccccc4)cc3C2)cs1 (centres unmarked) [CBK307214] | 98.5 | –
87 | O=C1COc2ccccc2C/C=C/CC2(CCN(C(=O)c3n[nH]c4ccccc34)CC2)CN1 [CBK292021] | 88.9 | –
88 | O=C(O)C1C2C=CC(C2)C1C(=O)N1CCc2ccccc21 (centres unmarked) [CBK286537] | 85.2 | –
89 | Cc1nsc2c1[C@H]1[C@H](O)[C@H](O)C[C@H]1C1(CCC1)N2 [CBK303258] | 100 | –
